According to the supplement of paper PMC9673313:

compound: Clc1ccc2c(N3CCN(CCCN4CCN(c5ccnc6cc(Cl)ccc56)CC4)CC3)ccnc2c1 [piperaquine]
Description: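 Kenyan Plasmodium falciparum field isolates (2008-2021) were tested in a SYBR Green I growth-inhibition assay, either immediately ex vivo (fresh samples) or in vitro after culture adaptation. Cultures were at 1% parasitemia and 2% hematocrit, incubated with serial drug dilutions for 72 h at 37 °C (5% O2, 5% CO2), then read by fluorescence. IC50 was fitted by non-linear regression of the dose-response curve.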

Row | Test System | IC50 growth inhibition [µg/mL]
1 | 601-006 | 0.016
2 | 601-0018 | 0.00948
3 | 601-0023 | 0.0124
4 | 601-0031 | 0.0161
5 | 601-0132 | 0.0171
6 | 601-0140 | 0.0251
7 | 601-0154 | 0.0252
8 | 601-0157 | 0.0068
9 | 601-0163 | 0.022
10 | 601-0186 | 0.0596
11 | 601-0189 | 0.0275
12 | 601-209 | 0.0646
13 | 601-226 | 0.0572
14 | 601-239 | 0.0156
15 | 601-257 | 0.112
16 | 601-0260 | 2.46
17 | 601-262 | 0.112
18 | 601-272 | 0.0205
19 | 601-0284 | 0.0176
20 | 601-292 | 0.0322
21 | KCH19/06/0013 | 0.0146
22 | KCH 10/04/099 | 0.517
23 | KCH 10/05/108 | 0.0451
24 | KCH 10/05/113 | 0.00858

Row | Test System | IC50 growth inhibition [µg/mL]
25 | KCH 10/05/0116 | 0.00881
26 | KCH 10/06/119 | 0.0127
27 | KCH 10/06/120 | 0.163
28 | KCH 10/06/0122 | 0.069
29 | KCH 11/04/143 | 0.0205
30 | KCH 11/05/145 | 0.012
31 | KCH 13/1/192 | 0.0674
32 | KCH 13/9/226 | 0.0268
33 | KCH 14/03/247 | 0.0132
34 | KCH 14/10/281 | 0.00857
35 | KCH 14/10/283 | 0.00595
36 | KCH 15/05/310 | 0.0734
37 | KCH 15/06/316 | 0.0313
38 | KCH 15/09/334 | 0.00243
39 | KCH 15/10/339 | 0.00252
40 | KCH 16/05/361 | 0.00583
41 | KCH 16/07/365 | 0.0312
42 | KCH 16/08 369 | 0.00323
43 | KCH 17/09/372 | 0.00845
44 | KCH 17/09/373 | 0.00701
45 | KCH 17/09/374 | 0.00492
46 | KCH 18/07/0001 | 0.0158
47 | KCH 18/09/0003 | 0.0047
48 | KCH 19/04/0010 | 0.00314

Row | Test System | IC50 growth inhibition [µg/mL]
49 | KDH 10/02/0354 | 0.016
50 | KDH 10/11/521 | 0.03
51 | KDH 10/12/535 | 0.0114
52 | KDH 11/9/709 | 0.55
53 | KDH 11/10/728 | 0.105
54 | KDH 11/10/733 | 5.01
55 | KDH 12/10/909 | 0.00983
56 | KDH 12/10/918 | 0.0132
57 | KDH 12/11/923 | 0.0145
58 | KDH 12/11/928 | 0.00444
59 | KDH 13/09/1180 | 0.00678
60 | KDH 14/03/1351 | 0.0107
61 | KDH 14/05/1379 | 0.0283
62 | KDH 14/05/1396 | 0.0267
63 | KDH 14/05/1397 | 0.0137
64 | KDH 14/05/1400 | 0.027
65 | KDH 14/05/1402 | 0.0119
66 | KDH 15/01/1569 | 0.00462
67 | KDH 15/04/1616 | 0.028
68 | KDH 15/04/1619 | 0.0223
69 | KDH 15/06/1657 | 0.00996
70 | KDH 15/06/1658 | 0.0205
71 | KDH 15/06/1659 | 0.0165
72 | KDH 16/07/1821 | 0.0191

Row | Test System | IC50 growth inhibition [µg/mL]
73 | KDH 16/07/1823 | 0.0202
74 | KDH 16/07/1824 | 0.0512
75 | KDH 16/07/1826 | 0.0257
76 | KDH 16/07/1828 | 0.0285
77 | KDH 16/07/1829 | 0.00272
78 | KDH 16/07/1830 | 0.00694
79 | KDH 16/07/1831 | 0.0278
80 | KDH 16/07/1832 | 0.00427
81 | KDH 18/07/0001 | 0.00119
82 | KDH 18/07/0010 | 0.0227
83 | KDH 19/02/0077 | 0.017
84 | KDH 19/07/0120 | 0.00745
85 | KDH 19/12/0155 | 0.0208
86 | KDH 19/12/0156 | 0.0196
87 | KDH 19/12/0157 | 0.0175
88 | KDH 20/01/0159 | 0.0288
89 | KDH 20/01/0163 | 0.0245
90 | KDH 20/01/0166 | 0.0768
91 | KDH 21/02/0166 | 0.0768
92 | KDH 21/02/0167 | 0.0233
93 | KDH 21/02/0170 | 0.0523
94 | KDH 21/02/0173 | 0.0368
95 | KDH 21/02/0197 | 0.0184
96 | KDH 21/02/0198 | 0.0345

Row | Test System | IC50 growth inhibition [µg/mL]
97 | KDH 21/04/0218 | 0.003
98 | KDH 21/05/0220 | 0.0025
99 | KDH 21/05/0225 | 0.0071
100 | KDH 21/05/0230 | 0.127
101 | KDH 21/08/0250 | 0.0617
102 | KDH 21/08/0254 | 0.0379
103 | KOM 13/07/0006 | 0.0108
104 | KOM 13/07/0007 | 0.00616
105 | KOM 13/07/009 | 0.0226
106 | KOM 13/07/0010 | 0.00114
107 | KOM 13/08/0025 | 0.0147
108 | KOM 13/08/0034 | 0.0232
109 | KOM 13/09/0051 | 0.0206
110 | KOM 13/10/0073 D28/0 | 0.015
111 | KOM 13/10/0089 | 0.0186
112 | KOM 13/11/104 | 0.0175
113 | KOM 13/11/116 | 0.0287
114 | KOM 14/03/169 | 0.015
115 | KOM 14/03/189 | 0.018
116 | KOM 14/04/215 | 0.0255
117 | KOM 14/04/222 | 0.0193
118 | KOM 14/06/270 | 0.0171
119 | KOM 14/09/317 | 0.0159
120 | KOM 15/03/383 | 0.00453

Row | Test System | IC50 growth inhibition [µg/mL]
121 | KOM 15/04/398 | 0.00975
122 | KOM 15/05/416 | 0.00162
123 | KOM 15/05/417 | 0.00145
124 | KOM 15/05/421 D42 | 0.0404
125 | KOM 16/07/0609 | 0.0181
126 | KOM 16/07/0610 | 0.00766
127 | KOM 16/07/0611 | 0.0143
128 | KOM 16/07/0616 | 0.0305
129 | KOM 16/07/0620 | 0.0115
130 | KOM 16/08/0627 | 0.0067
131 | KOM 18/07/0004 | 0.0101
132 | KOM 18/07/0005 | 0.00889
133 | KOM 18/11/0045 | 0.00771
134 | KOM 19/01/0053 | 0.0191
135 | KOM 19/11/0147 | 0.0105
136 | KOM 19/12/0149 | 0.0283
137 | KOM 19/12/0150 | 0.00909
138 | KOM 19/12/151 | 0.0169
139 | KOM 19/12/155 | 0.0208
140 | KOM 19/12/0166 | 0.0355
141 | KOM 20/01/0165 | 0.0111
142 | KOM 20/01/0168 | 0.0157
143 | KOM 20/01/0172 | 0.0184
144 | KOM 20/01/0174 | 0.062

Row | Test System | IC50 growth inhibition [µg/mL]
145 | KOM 20/02/0178 | 0.00832
146 | KOM 20/02/0179 | 0.0157
147 | KOM 20/03/0184 | 0.0308
148 | KOM 21/02/0228 | 0.0626
149 | KOM 21/02/0237 | 0.001
150 | KOM 21/03/0202 | 0.003
151 | KOM 21/03/0254 | 0.0021
152 | KOM 21/03/0256 | 0.0026
153 | KOM 21/03/267 | 0.0023
154 | KOM 21/03/0292 | 0.0137
155 | KOM 21/04/0219 | 0.0227
156 | KOM 21/05/0262 | 0.0794
157 | KOM 21/05/0265 | 0.0027
158 | KOM 21/05/0271 | 0.0021
159 | KOM 21/05/0272 | 0.0037
160 | KOM 21/05/0277 | 0.0353
161 | KOM 21/05/0278 | 0.0027
162 | KOM 21/05/0280 | 0.0013
163 | KOM 21/08/0327 | 0.0283
164 | KOM 21/08/0340 | 0.0382
165 | KOM 21/08/0344 | 0.0249
166 | KOM 21/08/0353 | 0.0415
167 | KSI 9/06/0001 | 0.504
168 | KSI 10/09/096 | 0.0116

Row | Test System | IC50 growth inhibition [µg/mL]
169 | KSI 10/09/099 | 0.0338
170 | KSI 10/09/106 | 0.201
171 | KSI 10/9/111 | 0.284
172 | KSI 10/11/118 | 0.0157
173 | KSI 12/01/224 | 0.0193
174 | KSI 12/06/270 | 0.0175
175 | KSI 12/08/285 | 0.0196
176 | KSI 12/12/304 | 0.0244
177 | KSI 13/1/307 | 0.041
178 | KSI 13/3/323 | 0.0287
179 | KSI 13/04/334 | 0.0195
180 | KSI 13/05/346 | 0.0502
181 | KSI 13/06/360 | 0.00681
182 | KSI 13/10/422 | 0.0199
183 | KSI 13/10/430 | 0.00784
184 | KSI 14/01/474 | 0.016
185 | KSI 14/02/488 | 0.0157
186 | KSI 14/03/504 | 0.013
187 | KSI 14/03/506 | 0.0128
